Test results from patent US4479951A, “1.4;3.6-Dianhydrohexitol nitrates substituted by purine bases, processes for their preparation and pharmaceutical compositions” (Dr. Willmar Schwabe GmbH & Co., priority 1980, dated 1984).

System: mongrel dogs
Test: circulatory-pharmacological effectiveness on the narcotised dog, intravenous administration
Assay type: in vivo

Nc1ncnc2c1ncn2[C@H]1CO[C@H]2[C@@H]1OC[C@@H]2O[N+](=O)[O-] [1c/2c, 5-(9-Adenyl)-5-desoxy-1.4;3.6-dianhydro-L-iditol 2-nitrate]
APdiast: diastolic aorta pressure (2 min after i.v. 1 mg/kg): 74.1 mm.Hg
APsyst: systolic aorta pressure (2 min after i.v. 1 mg/kg): 115.3 mm.Hg
BFFem: blood flow in the A. femoralis, referred to 20 kg. body weight (2 min after i.v. 1 mg/kg): 35.3 mL/min
HF: heart frequency (2 min after i.v. 1 mg/kg): 158.7 min⁻¹
HLL: heart capacity left, referred to 20 kg. body weight (2 min after i.v. 1 mg/kg): 0.75 W
HLR: heart capacity right, referred to 20 kg. body weight (2 min after i.v. 1 mg/kg): 115.8 mW
HZV: heart minute volume, referred to 20 kg. body weight (2 min after i.v. 1 mg/kg): 3.91 L/min
LVEDP: end diastolic pressure in the left ventricle (2 min after i.v. 1 mg/kg): 2.62 mm.Hg
PAP: average pressure in the A. pulmonalis (2 min after i.v. 1 mg/kg): 15.6 ±2.1 mm.Hg
PRA: pressure in the right atrium (2 min after i.v. 1 mg/kg): 2.06 mm.Hg
SV: beat volume, referred to 20 kg. body weight (2 min after i.v. 1 mg/kg): 25.6 mL
WAP: pulmonalis resistance, referred to 20 kg. body weight (2 min after i.v. 1 mg/kg): 0.45 U
WFem: femoralis resistance, referred to 20 kg. body weight (2 min after i.v. 1 mg/kg): 0.35 KU
WTP: total peripheral resistance, referred to 20 kg. body weight (2 min after i.v. 1 mg/kg): 2.93 U
dp/dt: rate of pressure increase in the left ventricle (2 min after i.v. 1 mg/kg): 2606.2 mm.Hg/sec.
APdiast: diastolic aorta pressure (5 min after i.v. 1 mg/kg): 82.5 mm.Hg
APsyst: systolic aorta pressure (5 min after i.v. 1 mg/kg): 120.9 mm.Hg
BFFem: blood flow in the A. femoralis, referred to 20 kg. body weight (5 min after i.v. 1 mg/kg): 36.6 mL/min
HF: heart frequency (5 min after i.v. 1 mg/kg): 148.7 min⁻¹
HLL: heart capacity left, referred to 20 kg. body weight (5 min after i.v. 1 mg/kg): 0.74 W
HLR: heart capacity right, referred to 20 kg. body weight (5 min after i.v. 1 mg/kg): 87.6 mW
HZV: heart minute volume, referred to 20 kg. body weight (5 min after i.v. 1 mg/kg): 3.61 L/min
LVEDP: end diastolic pressure in the left ventricle (5 min after i.v. 1 mg/kg): 2.91 mm.Hg
PAP: average pressure in the A. pulmonalis (5 min after i.v. 1 mg/kg): 13.7 ±1.4 mm.Hg
PRA: pressure in the right atrium (5 min after i.v. 1 mg/kg): 2.81 mm.Hg
SV: beat volume, referred to 20 kg. body weight (5 min after i.v. 1 mg/kg): 26.0 mL
WAP: pulmonalis resistance, referred to 20 kg. body weight (5 min after i.v. 1 mg/kg): 0.40 U
WFem: femoralis resistance, referred to 20 kg. body weight (5 min after i.v. 1 mg/kg): 0.36 KU
WTP: total peripheral resistance, referred to 20 kg. body weight (5 min after i.v. 1 mg/kg): 3.42 U
dp/dt: rate of pressure increase in the left ventricle (5 min after i.v. 1 mg/kg): 2343.7 mm.Hg/sec.
APdiast: diastolic aorta pressure (7 min after i.v. 1 mg/kg): 83.4 mm.Hg
APsyst: systolic aorta pressure (7 min after i.v. 1 mg/kg): 121.9 mm.Hg
BFFem: blood flow in the A. femoralis, referred to 20 kg. body weight (7 min after i.v. 1 mg/kg): 38.6 mL/min
HF: heart frequency (7 min after i.v. 1 mg/kg): 146.7 min⁻¹
HLL: heart capacity left, referred to 20 kg. body weight (7 min after i.v. 1 mg/kg): 0.72 W
HLR: heart capacity right, referred to 20 kg. body weight (7 min after i.v. 1 mg/kg): 89.3 mW
HZV: heart minute volume, referred to 20 kg. body weight (7 min after i.v. 1 mg/kg): 3.51 L/min
LVEDP: end diastolic pressure in the left ventricle (7 min after i.v. 1 mg/kg): 2.91 mm.Hg
PAP: average pressure in the A. pulmonalis (7 min after i.v. 1 mg/kg): 14.1 ±1.6 mm.Hg
PRA: pressure in the right atrium (7 min after i.v. 1 mg/kg): 2.81 mm.Hg
SV: beat volume, referred to 20 kg. body weight (7 min after i.v. 1 mg/kg): 25.6 mL
WAP: pulmonalis resistance, referred to 20 kg. body weight (7 min after i.v. 1 mg/kg): 0.42 U
WFem: femoralis resistance, referred to 20 kg. body weight (7 min after i.v. 1 mg/kg): 0.34 KU
WTP: total peripheral resistance, referred to 20 kg. body weight (7 min after i.v. 1 mg/kg): 3.59 U
dp/dt: rate of pressure increase in the left ventricle (7 min after i.v. 1 mg/kg): 2362.5 mm.Hg/sec.
APdiast: diastolic aorta pressure (10 min after i.v. 1 mg/kg): 83.4 mm.Hg
APsyst: systolic aorta pressure (10 min after i.v. 1 mg/kg): 120.9 mm.Hg
BFFem: blood flow in the A. femoralis, referred to 20 kg. body weight (10 min after i.v. 1 mg/kg): 39.5 mL/min
HF: heart frequency (10 min after i.v. 1 mg/kg): 141.2 min⁻¹
HLL: heart capacity left, referred to 20 kg. body weight (10 min after i.v. 1 mg/kg): 0.72 W
HLR: heart capacity right, referred to 20 kg. body weight (10 min after i.v. 1 mg/kg): 88.8 mW
HZV: heart minute volume, referred to 20 kg. body weight (10 min after i.v. 1 mg/kg): 3.5 L/min
LVEDP: end diastolic pressure in the left ventricle (10 min after i.v. 1 mg/kg): 3.20 mm.Hg
PAP: average pressure in the A. pulmonalis (10 min after i.v. 1 mg/kg): 14.2 ±1.6 mm.Hg
PRA: pressure in the right atrium (10 min after i.v. 1 mg/kg): 2.95 mm.Hg
SV: beat volume, referred to 20 kg. body weight (10 min after i.v. 1 mg/kg): 26.4 mL
WAP: pulmonalis resistance, referred to 20 kg. body weight (10 min after i.v. 1 mg/kg): 0.42 U
WFem: femoralis resistance, referred to 20 kg. body weight (10 min after i.v. 1 mg/kg): 0.33 KU
WTP: total peripheral resistance, referred to 20 kg. body weight (10 min after i.v. 1 mg/kg): 3.57 U
dp/dt: rate of pressure increase in the left ventricle (10 min after i.v. 1 mg/kg): 2268.7 mm.Hg/sec.
